Reference: US20130203726A1, “FtsZ INHIBITORS AS POTENTIATORS OF BETA-LACTAM ANTIBIOTICS AGAINST METHICILLIN-RESISTANT STAPHYLOCOCCUS” (priority 2010, published 2013)
Like-named read-outs stand apart in the source and are kept apart here.

Legend:
MRSE CLB 26329 = assay: Checkerboard assay (MIC, FIC index) against MRSE; format: cell-based, S. epidermidis
From the text: (§1) The checkerboard method is the technique most frequently used to assess antimicrobial combinations in vitro. See Antibiotics in Laboratory Medicine Victor Lorian ed. 2005. The term. checkerboard refers to the pattern of microtiter wells formed by multiple dilutions of the two antimicrobials being tested in concentrations equal to, above and below their minimal inhibitory concentrations (MICs) against the organisms being tested. The checkerboard consists of columns in which each well contains the same amount of Drug A being two-fold diluted along the x-axis and rows in which each well contains the same amount of Drug B being two-fold diluted on the Y-axis. The result is that each well contains a unique combination of the two drugs being tested. Also tested is the antimicrobial activity of each agent singly.
(§2) The 96 well U-bottom polypropylene microtiter plates (Fisher Scientific, Pittsburgh, Pa.) were inoculated with 90 μl of bacterial cells (grown in Tryptic Soy Broth at 37° C. for 18 hours with rotary shaking) diluted in cation-adjusted Mueller Hinton broth to a final concentration of ˜5.5×10^5 CFU/mL.
(§3) β-lactam antibiotics were two-fold serially diluted along the Y-axis of 96-well U-bottom microtiter dishes (Fisher Scientific, Pittsburgh, Pa.) in microbiological growth media [brain heart infusion broth (BBL)]. FtsZ inhibitors were serially diluted along the X-axis of 96-well U-bottom microtiter dishes in microbiological growth media. The plates were inoculated with bacterial cells (grown in Trypticase Soy Broth at 37° C. for 18 hours with rotary shaking) to a final concentration of ˜5×10^5 CFU/mL. Test plates were incubated stationery at 37° C. for 22-24 hours.
(§4) The FIC index is most commonly used to report results of studies with antimicrobial combinations. In this method, the FIC for each drug is derived by dividing the concentration of that drug necessary to inhibit growth in a given combination by the MIC of the test organism for that drug alone. The FTC index (FICI) is then calculated by summing the separate FICs of the drugs present in that test well. Synergism is defined as an FTC index of 0.5.

MRSA COL [1] = assay: MRSA deep thigh infection model in neutropenic mice; format: in vivo, Staphylococcus aureus; details: for reduction of bacterial burden per thigh: 24 hr
Description: Female mice (20-25 g) were rendered neutropenic via intraperitoneal injection of cyclophosphamide (Mead Johnson Pharmaceuticals) four days (150 mg/kg) and one day (100 mg/kg) prior to experimental infection. Neutropenic mice were infected on Day 0 via intramuscular thigh injection of 0.1 ml containing ˜1-2×10^6 CPU Staphylococcus aureus (strain B, MRSA COL) from freshly grown culture broth. Two hours post thigh infection, mice were randomized and groups were administered increasing doses of PC190723 (50, 100, 200 mg/kg orally (p.o.), t.i.d ([…]); equivalent to 150, 300, and 600 mg/kg/24 hr) in the absence or presence of imipenem/cilastatin (10 mg/kg/50 mg/kg subcutaneously (s.c.), t.i.d. ([…]); equivalent to 30 mg/kg/24 hr and 150 mg/ kg/24 hr). Assay control groups included non-infected, vehicle-treated mice, vehicle-treated baseline infected (t=0 hr) mice, vehicle-treated 24 hr infected (t=24 hr) mice, and linezolid ((Zyvox IV solution, Bell Medical; 40 mg/kg orally (p.o.), b.i.d. ([…]) equivalent to 80 mg/kg/24 hr).
Twenty four hours post the initiation of therapy, mice were sacrificed, thighs aseptically removed, placed in 4 ml sterile phosphate buffered saline (Fisher Scientific), and homogenized using a Polytron (Brinkmann Instruments). Homogenates were serially 100-fold diluted in 9.9 ml sterile saline and plated on Mannitol Salt Agar plates. Plates were incubated at 35° C. for 48 hours and colony forming units (CFU) of bacteria remaining per thigh were determined.

MRSA COL [2] = assay: Checkerboard assay (MIC, FIC index) against MRSA; format: cell-based, S. aureus
From the text: as §1, §2, §3, §4

[3] = system: MRSA COL strains bearing xylose-regulated antisense fragments corresponding to FtsZ, FtsA, or FtsW; format: cell-based, Staphylococcus aureus; details: 50 mM xylose (antisense induced) versus no xylose, FtsZ-AS
Description: See Forsyth et al., 2002, Mol. Microbial 43:1387-1400 for details concerning plasmid and antisense interference construction. Strains were grown overnight in Luria Bertani (LB) Miller broth at 37° C. containing 34 μg/ml chloramphenicol. Assay plates were prepared by seeding 10^7 cells/ml of each culture into 48° C. cooled LB Miller agar containing 34 μg/ml chloramphenicol. To partially repress FtsZ expression, 50 mM xylose was supplemented to plates. This antisense inducer concentration modestly impairs growth of each strain equally, reflecting a 20% inhibitory growth concentration (i.e., xylose IC20˜50 mM).
The following antibiotics were then spotted on the surface of the plates: carbapenems, imipenem (12.8 μg) and ertapenem (51.2 μg); cephalosporins, cefepime (102.4 μg), ceftazidime (102.4 μg), and ceftriaxone (102.4 μg); and the β-lactam piperacillin (combined with the […] in a 8:1 molar ratio (25.6 μg). As a control, MRSA COL was identically tested but under conditions where no xylose was supplemented into the medium (i.e., non-repressed FtsZ) as well as by identically processing the MRSA COL strain transformed with pEPSA5 but lacking an antisense fragment (data not shown). As a control for the specificity of ftsZ, ftsA, and ftsW mutant susceptibility to β-lactams, the non-β-lactam cell wall antibiotic, vancomycin (0.8 μg) was additionally spotted. Plates were then incubated at 37° C. for 16 h and photographed.
The effect FtsZ, FtsA, or FtsW imparts on MRSA susceptibility to the above antibiotics was determined by comparing their zone of inhibition between plates supplemented with antisense inducer (50 mM xylose) versus those without xylose. Differential antibiotic zones of inhibition between FtsZ, FtsA, and FtsW antisense bearing strains grown under xylose induced versus non-induced conditions reflect Fts gene-dependent restoration of MRSA COL susceptibility to β-lactams.

[4] = FtsZ inhibitor in combination with cefazolin
[5] = FtsZ inhibitor in combination with cefepime, lowest achievable for PC190723
[6] = FtsZ inhibitor in combination with amoxicillin, MRSA COL
[7] = FtsZ inhibitor in combination with cefazolin, MRSA COL
[8] = FtsZ inhibitor in combination with cefdinir, MRSA COL

In the case of `NC(=O)c1c(F)ccc(OCc2nc3cc(Cl)cnc3s2)c1F` [PC190723], the “FIC of the FtsZ inhibitor at which synergy with β-lactams was shown” value (MRSE CLB 26329) is reported as 0.25, the “lower levels of imipenem required to inhibit growth” value (MRSE CLB 26329; FtsZ inhibitor at FIC≦0.25 combined with imipenem) is reported as 32 fold and the FICI (MRSE CLB 26329; [4]) is reported as 0.31. The FICI (MRSE CLB 26329; [5]) was 0.28, the FICI (MRSE CLB 26329; FtsZ inhibitor in combination with ertapenem at its clinical breakpoint (8 μg/ml)) was 0.5 and the FICI (MRSE CLB 26329; FtsZ inhibitor in combination with imipenem at its clinical breakpoint (4 μg/ml)) was 0.31. For the same compound, the MIC (MRSE CLB 26329; Staphylococcus epidermidis, agent alone, read-out: minimal inhibitory concentration (MIC)) was 1 µg/mL, the MIC (MRSE CLB 26329; agent alone, FIG. 5 legend, unit not given) was 1.0 and the “antibacterial activity compared with linezolid” value (MRSA COL [1]; 10 mg/kg imipenem + 200 mg/kg PC190723, linezolid 40 mg/kg p.o. b.i.d.) was “approaching linezolid-like antibacterial activity”. For the same compound, the “reduction of bacterial burden per thigh” value (MRSA COL [1]; PC190723 50 mg/kg p.o. t.i.d. + imipenem 10 mg/kg s.c. t.i.d., FIG. 7A) was −0.4 Log 10 CFU, the “reduction of bacterial burden per thigh” value (MRSA COL [1]; PC190723 100 mg/kg p.o. t.i.d. + imipenem 10 mg/kg s.c. t.i.d., FIG. 7A) was −1.2 Log 10 CFU and the “reduction of bacterial burden per thigh” value (MRSA COL [1]; PC190723 100 mg/kg p.o. t.i.d. + imipenem 10 mg/kg s.c. t.i.d., FIG. 7B) was −1.9 Log 10 CFU. For the same compound, the “reduction of bacterial burden per thigh” value (MRSA COL [1]; PC190723 200 mg/kg p.o. t.i.d. + imipenem 10 mg/kg s.c. t.i.d., FIG. 7A) was −3.1 Log 10 CFU, the “reduction of bacterial burden per thigh” value (MRSA COL [1]; PC190723 200 mg/kg p.o. t.i.d. + imipenem 10 mg/kg s.c. t.i.d., FIG. 7B) was −2.6 Log 10 CFU and the “effect on MRSA COL bacterial burden in the thighs” value (MRSA COL [1]; monotherapy over 24 hr, imipenem 10 mg/kg s.c. t.i.d. or PC190723 50, 100, 200 mg/kg p.o. t.i.d., neutropenic mice) was “did not significantly alter”. The “lower levels of imipenem required to inhibit growth” value (MRSA COL [2]; FtsZ inhibitor at FIC≦0.25 combined with imipenem, MRSA) was 16 fold, the FICI (MRSA COL [2]; [6]) was 0.53 and the FICI (MRSA COL [2]; [7]) was 0.38. For the same compound, the FICI (MRSA COL [2]; [8]) was 0.31, the FICI (MRSA COL [2]; FtsZ inhibitor in combination with ertapenem at its clinical breakpoint (8 μg/ml), MRSA) was 0.5 and the FICI (MRSA COL [2]; FtsZ inhibitor in combination with imipenem at its clinical breakpoint (4 μg/ml), MRSA) was 0.31. The “FIC of the FtsZ inhibitor at which synergy with β-lactams was shown” value (MRSA COL [2]; MRSA) was 0.25, the MIC (MRSA COL [2]; Staphylococcus aureus, agent alone, MRSA, read-out: minimal inhibitory concentration (MIC)) was 1 µg/mL and the MIC (MRSA COL [2]; agent alone, MRSA, FIG. 5 legend, unit not given) was 1.0. For the same compound, the “reduction of the effective inhibitory concentration of amoxicillin” value (MRSA COL [2]; combined with PC190723 at FIC=0.5, MRSA) was roughly 32 fold.

`CC[C@H]1OC(=O)[C@H](C)[C@@H](O[C@H]2C[C@@](C)(OC)[C@@H](O)[C@H](C)O2)[C@H](C)[C@@H](O[C@@H]2O[C@H](C)C[C@H](N(C)C)[C@H]2O)[C@](C)(O)C[C@@H](C)CN(C)[C@H](C)[C@@H](O)[C@]1(C)O` [azithromycin] was tested, and the “change of susceptibility (zone of inhibition) on partial genetic inactivation of FtsZ, FtsA or FtsW” value [3] was “none of the FtsZ-AS, FtsA-AS, or FtsW-AS strains demonstrated altered hypersensitivity”.

In the case of `C/C=C/C/C=C/CCC(=O)[C@H]1O[C@H]1C(N)=O` [cerulenin], the “change of susceptibility (zone of inhibition) on partial genetic inactivation of FtsZ, FtsA or FtsW” value [3] is reported as “none of the FtsZ-AS, FtsA-AS, or FtsW-AS strains demonstrated altered hypersensitivity”.

For `O=C(O)c1cn(C2CC2)c2cc(N3CCNCC3)c(F)cc2c1=O` [ciprofloxacin], the “change of susceptibility (zone of inhibition) on partial genetic inactivation of FtsZ, FtsA or FtsW” value [3] was “none of the FtsZ-AS, FtsA-AS, or FtsW-AS strains demonstrated altered hypersensitivity”.

For `CC(=O)NC[C@H]1CN(c2ccc(N3CCOCC3)c(F)c2)C(=O)O1` [linezolid], the “change of susceptibility (zone of inhibition) on partial genetic inactivation of FtsZ, FtsA or FtsW” value [3] was “none of the FtsZ-AS, FtsA-AS, or FtsW-AS strains demonstrated altered hypersensitivity”.

For `COc1cc(Cc2cnc(N)nc2N)cc(OC)c1OC` [trimethoprim], the “change of susceptibility (zone of inhibition) on partial genetic inactivation of FtsZ, FtsA or FtsW” value [3] was “none of the FtsZ-AS, FtsA-AS, or FtsW-AS strains demonstrated altered hypersensitivity”.

`CN[C@H](CC(C)C)C(=O)N[C@H]1C(=O)N[C@@H](CC(N)=O)C(=O)N[C@H]2C(=O)N[C@H]3C(=O)N[C@H](C(=O)N[C@H](C(=O)O)c4cc(O)cc(O)c4-c4cc3ccc4O)[C@H](O)c3ccc(c(Cl)c3)Oc3cc2cc(c3O[C@@H]2O[C@H](CO)[C@@H](O)[C@H](O)[C@H]2O[C@H]2C[C@](C)(N)[C@H](O)[C@H](C)O2)Oc2ccc(cc2Cl)[C@H]1O` [vancomycin] was tested, and the “change of susceptibility (zone of inhibition) on partial genetic inactivation of FtsZ, FtsA or FtsW” value [3] was “none of the FtsZ-AS, FtsA-AS, or FtsW-AS strains demonstrated altered hypersensitivity”.

In the case of Zantrin Z3, the “lower levels of cefazolin required to inhibit growth” value (MRSE CLB 26329; FtsZ inhibitor at FIC≦0.25 combined with cefazolin) is reported as 16 fold, the FICI (MRSE CLB 26329; FtsZ inhibitor in combination with amoxicillin) is reported as 0.28 and the FICI (MRSE CLB 26329; [4]) is reported as 0.31. It also gave an FICI (MRSE CLB 26329; FtsZ inhibitor in combination with cefdinir) of 0.27, an FICI (MRSE CLB 26329; [5]) of 0.16 and an FICI (MRSE CLB 26329; FtsZ inhibitor in combination with ceftazidime) of 0.50. The “minimal inhibitory concentration (MIC)” value (MRSE CLB 26329; agent alone) was 8−16.0 μg/ml, the “fraction of normal amoxicillin concentration needed to display MRSE efficacy” value (MRSE CLB 26329; amoxicillin paired with Z3) was 1/16 and the “reduced cefdinir concentration to restore anti-MRSE activity” value (MRSE CLB 26329; cefdinir paired with Z3) was 64 fold. The “lower levels of cefazolin required to inhibit growth” value (MRSA COL [2]; FtsZ inhibitor at FIC≦0.25 combined with cefazolin, MRSA) was 16 fold, the FICI (MRSA COL [2]; [6]) was “no synergy was detected” and the FICI (MRSA COL [2]; [7]) was 0.25. The FICI (MRSA COL [2]; [8]) was 0.5, the FICI (MRSA COL [2]; FtsZ inhibitor in combination with cefepime, MRSA COL) was 0.25 and the FICI (MRSA COL [2]; FtsZ inhibitor in combination with ceftazidime, MRSA COL) was 0.28. For the same compound, the “minimal inhibitory concentration (MIC)” value (MRSA COL [2]; agent alone, MRSA) was 8−16.0 μg/ml.
